According to patent publication US20200407717A1, “METHODS OF MODULATING ANTISENSE ACTIVITY” (Ionis Pharmaceuticals, Inc., priority 2018, published 2020):
e = 2'-O-(2-methoxyethyl) (MOE); d = 2'-deoxy (DNA)

System: Drosha mRNA
Test: Antisense activity by RT-qPCR, Drosha, A431 cells
Assay type: cell-based, Human
Protocol: A431 cells were grown at 10,000 cells per well and pre-treated with a variety of growth factors to determine if the addition of exogenous growth factors affects antisense activity or uptake of modified antisense oligonucleotides in a cell. The growth factors used were EGF, insulin growth factor (IGF), transforming growth factor (TGF), […] (VEGF), hepatocyte growth factor (HGF), platelet growth factor (PGF) and fibroblasts growth factor (FGF). To test antisense activity, cells were treated for 4 hours with a growth factor or vehicle alone, and then treated with compound no. 25690 (complementary to Drosha), compound no. 395254 (complementary to Malat1), or vehicle alone. RNA was isolated from the cells and Drosha or Malat1 RNA levels were measured by RT-qPCR. Human primer probe set 13816 (forward sequence […], designated herein as SEQ ID NO: 3; reverse sequence […], designated herein as SEQ ID NO: 4; probe sequence […], designated herein as SEQ ID NO: 5) was used to measure Drosha mRNA levels and primer probe set RTS2736 (forward sequence […], designated herein as SEQ ID NO: 6; reverse sequence […], designated herein as SEQ ID NO: 7; probe sequence TGCCACATCGCCACCCCGT, designated herein as SEQ ID NO: 8) was used to measure Malat1 RNA levels. Drosha and Malat1 RNA levels were normalized to total RNA content, as measured by RIBOGREEN®. Results are presented in the tables below as normalized RNA levels, relative to untreated control cells.
A431 cells were treated with EGF or TGF at 200 ng/mL in the presence or absence of 1 μM of the EGFR tyrosine kinase inhibitor PD174265. The cells were then treated with compound no. 25690 or compound no. 395254 as in Example 8. Total RNA was isolated and analyzed by RT-qPCR, as in Example 8.
Following siRNA treatment, cells were treated with compound no. 25690 or compound no. 395254 in the presence or absence of EGF. 16 hours after treatment with a PS-ASO with or without EGF, cells were harvested, and RNA levels were analyzed via RT-qPCR as in Example 8.

## AGGAAGGAAGCTGGCGATCT (sugars from the 5' end e5 d10 e5, all phosphorothioate, methylation of C not given here) [compound 25690]
19.5 nM, Control
  Drosha mRNA (% Control): 100.0 % Control
19.5 nM, EGF
  Drosha mRNA (% Control): 100.0 % Control
19.5 nM, TGF
  Drosha mRNA (% Control): 100.0 % Control
39 nM, Control
  Drosha mRNA (% Control): 104.3 % Control
39 nM, EGF
  Drosha mRNA (% Control): 98.0 % Control
39 nM, TGF
  Drosha mRNA (% Control): 95.1 % Control
78 nM, Control
  Drosha mRNA (% Control): 100.3 % Control
78 nM, EGF
  Drosha mRNA (% Control): 98.0 % Control
78 nM, TGF
  Drosha mRNA (% Control): 80.2 % Control
97.7 nM, Control
  Drosha mRNA (% Control): 100.0 % Control
97.7 nM, Control Luciferase siRNA
  Drosha mRNA (% Control): 100.0 % Control
97.7 nM, Control Luciferase siRNA, Table 26
  Drosha mRNA (% Control): 100.0 % Control
97.7 nM, Control luciferase + EGF
  Drosha mRNA (% Control): 100.0 % Control
97.7 nM, Control, Table 20
  Drosha mRNA (% Control): 100.0 % Control
97.7 nM, EGF
  Drosha mRNA (% Control): 100.0 % Control
97.7 nM, EGF+PD174265
  Drosha mRNA (% Control): 100.0 % Control
97.7 nM, EGFR siRNA-1
  Drosha mRNA (% Control): 100.0 % Control
97.7 nM, EGFR siRNA-2
  Drosha mRNA (% Control): 100.0 % Control
97.7 nM, EGFR siRNA-2 + EGF
  Drosha mRNA (% Control): 100.0 % Control
97.7 nM, EGFR siRNA-2, Table 26
  Drosha mRNA (% Control): 100.0 % Control
97.7 nM, TGF
  Drosha mRNA (% Control): 100.0 % Control
97.7 nM, TGF+PD174265
  Drosha mRNA (% Control): 100.0 % Control
156.25 nM, Control
  Drosha mRNA (% Control): 103.8 % Control
156.25 nM, EGF
  Drosha mRNA (% Control): 70.7 % Control
156.25 nM, TGF
  Drosha mRNA (% Control): 64.6 % Control
195 nM, Control
  Drosha mRNA (% Control): 110.0 % Control
195 nM, Control Luciferase siRNA
  Drosha mRNA (% Control): 81.4 % Control
195 nM, Control Luciferase siRNA, Table 26
  Drosha mRNA (% Control): 99.2 % Control
195 nM, Control luciferase + EGF
  Drosha mRNA (% Control): 110.2 % Control
195 nM, Control, Table 20
  Drosha mRNA (% Control): 110.0 % Control
195 nM, EGF
  Drosha mRNA (% Control): 98.2 % Control
195 nM, EGF+PD174265
  Drosha mRNA (% Control): 102.4 % Control
195 nM, EGFR siRNA-1
  Drosha mRNA (% Control): 103.0 % Control
195 nM, EGFR siRNA-2
  Drosha mRNA (% Control): 88.0 % Control
195 nM, EGFR siRNA-2 + EGF
  Drosha mRNA (% Control): 107.2 % Control
195 nM, EGFR siRNA-2, Table 26
  Drosha mRNA (% Control): 105.2 % Control
195 nM, TGF
  Drosha mRNA (% Control): 95.2 % Control
195 nM, TGF+PD174265
  Drosha mRNA (% Control): 108.0 % Control
312.5 nM, Control
  Drosha mRNA (% Control): 92.7 % Control
312.5 nM, EGF
  Drosha mRNA (% Control): 72.8 % Control
312.5 nM, TGF
  Drosha mRNA (% Control): 61.1 % Control
391 nM, Control
  Drosha mRNA (% Control): 99.7 % Control
391 nM, Control Luciferase siRNA
  Drosha mRNA (% Control): 67.0 % Control
391 nM, Control Luciferase siRNA, Table 26
  Drosha mRNA (% Control): 100.0 % Control
391 nM, Control luciferase + EGF
  Drosha mRNA (% Control): 100.0 % Control
391 nM, Control, Table 20
  Drosha mRNA (% Control): 99.3 % Control
391 nM, EGF
  Drosha mRNA (% Control): 89.4 % Control
391 nM, EGF+PD174265
  Drosha mRNA (% Control): 103.3 % Control
391 nM, EGFR siRNA-1
  Drosha mRNA (% Control): 78.9 % Control
391 nM, EGFR siRNA-2
  Drosha mRNA (% Control): 83.1 % Control
391 nM, EGFR siRNA-2, Table 26
  Drosha mRNA (% Control): 100.0 % Control
391 nM, TGF
  Drosha mRNA (% Control): 85.2 % Control
391 nM, TGF+PD174265
  Drosha mRNA (% Control): 91.2 % Control
625 nM, Control
  Drosha mRNA (% Control): 90.9 % Control
625 nM, EGF
  Drosha mRNA (% Control): 57.2 % Control
625 nM, TGF
  Drosha mRNA (% Control): 50.8 % Control
781 nM, Control
  Drosha mRNA (% Control): 88.4 % Control
781 nM, Control Luciferase siRNA
  Drosha mRNA (% Control): 56.6 % Control
781 nM, Control Luciferase siRNA, Table 26
  Drosha mRNA (% Control): 77.5 % Control
781 nM, Control luciferase + EGF
  Drosha mRNA (% Control): 60.8 % Control
781 nM, Control, Table 20
  Drosha mRNA (% Control): 87.2 % Control
781 nM, EGF
  Drosha mRNA (% Control): 81.4 % Control
781 nM, EGF+PD174265
  Drosha mRNA (% Control): 83.6 % Control
781 nM, EGFR siRNA-1
  Drosha mRNA (% Control): 62.3 % Control
781 nM, EGFR siRNA-2
  Drosha mRNA (% Control): 64.8 % Control
781 nM, EGFR siRNA-2 + EGF
  Drosha mRNA (% Control): 98.4 % Control
781 nM, EGFR siRNA-2, Table 26
  Drosha mRNA (% Control): 89.8 % Control
781 nM, TGF
  Drosha mRNA (% Control): 67.2 % Control
781 nM, TGF+PD174265
  Drosha mRNA (% Control): 87.2 % Control
1250 nM, Control
  Drosha mRNA (% Control): 75.7 % Control
1250 nM, EGF
  Drosha mRNA (% Control): 52.8 % Control
1250 nM, TGF
  Drosha mRNA (% Control): 43.4 % Control
1563 nM, Control
  Drosha mRNA (% Control): 83.2 % Control
1563 nM, Control Luciferase siRNA
  Drosha mRNA (% Control): 49.2 % Control
1563 nM, Control Luciferase siRNA, Table 26
  Drosha mRNA (% Control): 70.2 % Control
1563 nM, Control luciferase + EGF
  Drosha mRNA (% Control): 57.6 % Control
1563 nM, Control, Table 20
  Drosha mRNA (% Control): 76.3 % Control
1563 nM, EGF
  Drosha mRNA (% Control): 74.7 % Control
1563 nM, EGF+PD174265
  Drosha mRNA (% Control): 68.9 % Control
1563 nM, EGFR siRNA-1
  Drosha mRNA (% Control): 56.0 % Control
1563 nM, EGFR siRNA-2
  Drosha mRNA (% Control): 61.4 % Control
1563 nM, EGFR siRNA-2 + EGF
  Drosha mRNA (% Control): 79.4 % Control
1563 nM, EGFR siRNA-2, Table 26
  Drosha mRNA (% Control): 80.3 % Control
1563 nM, TGF
  Drosha mRNA (% Control): 65.9 % Control
1563 nM, TGF+PD174265
  Drosha mRNA (% Control): 78.7 % Control
2500 nM, Control
  Drosha mRNA (% Control): 63.6 % Control
2500 nM, EGF
  Drosha mRNA (% Control): 42.8 % Control
2500 nM, TGF
  Drosha mRNA (% Control): 40.1 % Control
3125 nM, Control
  Drosha mRNA (% Control): 66.6 % Control
3125 nM, Control Luciferase siRNA
  Drosha mRNA (% Control): 40.7 % Control
3125 nM, Control Luciferase siRNA, Table 26
  Drosha mRNA (% Control): 61.6 % Control
3125 nM, Control luciferase + EGF
  Drosha mRNA (% Control): 40.8 % Control
3125 nM, Control, Table 20
  Drosha mRNA (% Control): 67.2 % Control
3125 nM, EGF
  Drosha mRNA (% Control): 55.9 % Control
3125 nM, EGF+PD174265
  Drosha mRNA (% Control): 62.7 % Control
3125 nM, EGFR siRNA-1
  Drosha mRNA (% Control): 51.4 % Control
3125 nM, EGFR siRNA-2
  Drosha mRNA (% Control): 54.6 % Control
3125 nM, EGFR siRNA-2 + EGF
  Drosha mRNA (% Control): 75.4 % Control
3125 nM, EGFR siRNA-2, Table 26
  Drosha mRNA (% Control): 70.6 % Control
3125 nM, TGF
  Drosha mRNA (% Control): 47.2 % Control
3125 nM, TGF+PD174265
  Drosha mRNA (% Control): 64.2 % Control
5000 nM, Control
  Drosha mRNA (% Control): 47.6 % Control
5000 nM, EGF
  Drosha mRNA (% Control): 33.0 % Control
5000 nM, TGF
  Drosha mRNA (% Control): 31.9 % Control
